Columns and labels:
[1] = tested on: excised cotton leaves at different developmental stages; assay: Ethylene-induced chlorophyll degradation in leaves of mature cotton plants; format: in vivo, cotton (Gossyium hirsutum barbadense L.)
Experimental: (§1) (1) Abscission—This is a very sensitive model system for studying the effects of plant hormones. Ethylene induces the process of abscission, while auxin delays it. In the laboratory the experimental system is based on plant organ explants, which include the abscission zone. Abscission is induced by exposure to ethylene and at the termination of the experiment the number of abscised organs, usually either leaf blades or petioles are counted and the fraction of abscission is calculated. In the case of fruit, the decrease in fruit retention force is analyzed. In cotton, when WS-CPD (the ethylene-action antagonist herein disclosed) is tested, the whole plants or explants are pretreated by spraying with the antagonist, dissolved in a phosphate buffer solution (10-20 mM, pH 7.0) including 0.1% commercially available Kinetic™ as surfactant, and left to incubate for a predetermined time, usually between 6 and 24 h. The plants or explants are then further exposed for 24 h to ethylene gas (5 to 20 μL L^−1). The plants or explants are then ventilated and incubated for the required time under controlled conditions. At the end of the experiment the percentage of abscission is determined. (2) Chlorophyll degradation—This is a standard model for studying senescence. Plant material (whole plants, excised leaves or leaf discs) are pretreated. In cotton, tobacco and wheat, when WS-CPD is tested, the whole plants or explants are pretreated by spraying with the antagonist, dissolved in phosphate buffer solution (10-20 mM, pH 7.0) including 0.1% commercially available Kinetic™ surfactant, and left to incubate for a predetermined time, usually between 6 and 241. The plants or explants are then further exposed for 24 h to ethylene gas (1 to 100 μL L^−1), or sprayed with Ethephon™ (wheat; 250 to 750 μL L^−1). The plants or explants are then ventilated and incubated for the required time under controlled conditions. At the end of the experiment a dimethylsulfoxide (DMSO) extract of the plant tissue is prepared, and the chlorophyll content of the extract is determined by spectrophotometric analysis. The chlorophyll content is reported either on a fresh, dry weight basis, or on a surface area basis. (3) Epinasty—This is also one of the classical methods for studying ethylene effects in plants. The extent of ethylene-induced epinasty of leaves is determined by measuring the change of the angle between the petiole and the stem shoot or blade. After exposure of the intact plant to ethylene, the upright grown leaves bend downward. The increase in the angle values (degrees) between petiole and the stem is used as a measure of the effect of the ethylene. […]

wheat plants [2] = assay: Ethephon-induced chlorophyll degradation in wheat leaves, glumes and chaffs; format: in vivo, wheat (Triticum turgidum var. 'Gdera'); conditions: for Ethephon-induced decrease in the content of chlorophyll: WS-CPD 45 μg mL^−1
Experimental: as §1, with “ethylene. When WS-CPD is tested on cotton and wheat plants, the whole plants are pretreated by spraying with the antagonist dissolved in phosphate buffer solution (10-20 mM, pH 7.6) including 0.1% Kinetic™ as surfactant, and left to incubate for a predetermined time, usually between 6 and 24 h. The plants are then further exposed for 24 h to ethylene gas (cotton, 5 to 10 μL L^−1), or sprayed with Ethephon™ (wheat, 250 to 750 μL L^−1). The plants are then ventilated and incubated for the required time under controlled conditions. The epinastic effect is expressed by measuring the degree values of the downward curvature between the blade and petiole (cotton, FIGS. 1-3) or between the blade and the stem (wheat, FIGS. 31 and 32). (4) Wheat Grain yield—This is a common test of the effects of exposure of monocot plants either to environmental stresses such as drought that induce senescence by increasing endogenous ethylene production. Excessive internal or external ethylene will accelerate senescence which will lead to reduced grain yield. In this project the intact plants were grown in the greenhouse up to the spike hading at milky stage I and II. The plants were then sprayed with the dissolved WS-CPD in phosphate buffer solution (10 mM, pH 7.6) including 0.1% Kinetic™ as surfactant. Young Cotton Seedlings” for “ethylene.”

wheat plants [3] = assay: Wheat grain yield at harvest, greenhouse, sandy soil, natural conditions; format: in vivo, wheat (Triticum turgidum var. 'Gdera')
pKa and ionisation state = format: physicochemical
Text: The IR spectrum (FIG. 60), UV-VIS spectrum (FIG. 61), and potentiometric titration (FIG. 62) are all consistent with the structure given above for WS-CPD. The IR peak of WS-CPD at C1=1773 cm^−1, and the peak of the C═O stretch in the IR and the UV-VIS peak is λmax 206nm.
Thus, under the normal conditions of use, e.g., pH 7.6-7.8, more than 99% of the compound is present in the anion form. […] The XRD pattern was obtained in a Rigaku Ultima sealed tube theta-theta diffractometer operating at a power level of 1.6 kW, with a step size of 0.02°, angular range of 10-60°, and speed of 0.5°/min. Analysis of the XRD pattern was performed using the Jade 8 program (MDI, Inc.). From the diffraction pattern, it appears that the powdered material is not homogeneous, but rather that there appear to be three distinct structural forms present, namely, an amorphous form, a poor quality crystalline form, and a crystalline form. The presence of the amorphous form is indicated by the prominent diffuse peak centered at 2θ˜23°. Superimposed on this broad peak are a number of sharp peaks, indicating the presence of a crystalline form. […] The effective crystallite sizes of the crystalline form were calculated using the Scherrer formula and found to be in the range of 300-700 Å. […] The following volume fractions were measured: amorphous—57.5%; poorly crystalline—39.5%; crystalline—3%. […]

O=C([O-])CCC1=CC1.[Na+] [WS-CPD, 3-cyclopropyl-1-enyl-propanoic sodium salt]
ethylene-induced chlorophyll degradation ([1]; mature leaves, WS-CPD 480 μg L^−1 (so in the source)): less effective | inhibition of ethylene-induced chlorophyll degradation ([1]; mature leaves, WS-CPD 90 and 240 μg mL^−1): 95% | ethylene-induced chlorophyll degradation ([1]; young leaves, WS-CPD 10 μg mL^−1, ethylene 10 μL L^−1): completely antagonized | ethylene-induced chlorophyll degradation ([1]; young leaves, WS-CPD 270 μg mL^−1): less effective | Ethephon-induced chlorophyll degradation in the glumes and chaffs (wheat plants [2]; WS-CPD 62 μg mL^−1, Ethephon 250 μL L^−1): completely reversed | decrease of chlorophyll content in the flag leaf (wheat plants [2]; WS-CPD 312 μg mL^−1, Ethephon 250 μL L^−1, milky stage I): almost completely antagonized | chlorophyll decrease induced by Ethephon (wheat plants [2]; WS-CPD 415 μg mL^−1, Ethephon 750 μL L^−1, both types of leaves, milky stage I): only slightly antagonized | Ethephon-induced decrease of chlorophyll (wheat plants [2]; WS-CPD 12 to 62 μg mL^−1, milky stage I, mainly flag leaf, also leaf II): significantly reduced | effect on chlorophyll in leaves treated with Ethephon (wheat plants [2]; WS-CPD 15 to 135 μg L^−1 (so in the source), Ethephon 750 μL L^−1, milky stage II): not effective | decrease in the chlorophyll titer in the treated spike-chaffs (wheat plants [2]; WS-CPD 15 to 135 μg L^−1 (so in the source), Ethephon 750 μL L^−1, milky stage II, insignificant): 3% | Ethephon-induced decrease in the content of chlorophyll (wheat plants [2]; chaffs, Ethephon 750 μL L^−1): markedly antagonized | increase of chlorophyll content above control untreated plants (wheat plants [2]; chaffs, WS-CPD 62 μg mL^−1, Ethephon 250 μL L^−1): 10% | Ethephon-induced decrease in the content of chlorophyll (wheat plants [2]; glumes, Ethephon 750 μL L^−1): much less effective | increase of chlorophyll content above control untreated plants (wheat plants [2]; glumes, WS-CPD 62 μg mL^−1, Ethephon 250 μL L^−1): 60% | effect of repeating sprays after stage II on yield (wheat plants [3]; WS-CPD 120 μg mL^−1, two to four sprays at 8 to 10 days intervals): no advantage | grains weighting less than 35 mg/grain in the spikes of the treated plants (wheat plants [3]; WS-CPD 120 μg mL^−1, untreated plants more than 30% below this weight): almost no grains | total yield increase (wheat plants [3]; one spray WS-CPD 120 μg mL^−1 at milky stage I, dry grain at harvest): ca. 18% | pKa (pKa and ionisation state; ambient temperature): > 4.5 | fraction of the compound present in the anion form (pKa and ionisation state; pH 7.6-7.8): more than 99%

From US9363996B2, “Compositions and method for blocking ethylene response in field crops using 3-(cy-clopropyl-l-enyl)-propanoic salt” (Yissum Research Development Company of the Hebrew …, priority 2009, dated 2016)
